Read-outs that look alike come from different tables or passages of the source.
How the values were obtained:
[1] = test system: Rhizoctonia solani; test: Rhizoctonia solani test (in vitro)/microtitre plates; settings: microtitre plates, 5 days of incubation
Protocol: Rhizoctonia solani Test (in vitro)/Microtitre Plates
The microtest is carried out in microtitre plates using potato dextrose broth (PDB) as liquid test medium.
For inoculation, a mycelium suspension of Rhizoctonia solani is used. After 5 days of incubation in the dark and with shaking (10 Hz), for each filled cavity of the microtitre plates, the light transmittance is determined with the aid of a spectrophotometer.

[2] = test system: Sphaerotheca fuliginea; test: Sphaerotheca fuliginea test (cucumber)/protective; type: in vivo; settings: protective, 7 days after inoculation; for pest or weed control at 2 g/ha: application rate 2 g/ha
[3] = test system: Pyrenophora teres; test: Pyrenophora teres test (barley)/curative; settings: single active compound, application rate 25 g/ha, curative, evaluation 12 days after inoculation
Protocol: Pyrenophora teres Test (Barley)/Curative
To test for curative activity, young plants are sprayed with a conidia suspension of Pyrenophora teres. The plants remain in an incubation cabinet at 20° C. and 100% relative atmospheric humidity for 48 hours.
The plants are placed in a greenhouse at a temperature of about 20° C. and a relative atmospheric humidity of about 80%.
Evaluation is carried out 12 days after the inoculation.

[4] = test system: Alternaria mali; test: Alternaria mali test (in vitro)/microtitre plates; type: cell-based; settings: microtitre plates, 5 days of incubation
[5] = test system: Septoria tritici; test: Septoria tritici test (in vitro)/microtitre plates; type: cell-based; settings: single active compound, application rate 0.01 ppm, microtitre plates, 7 days of incubation
Text: For inoculation, a spore suspension of Septoria tritici is used.

[6] = test system: Erysiphe graminis f.sp. hordei; test: Erysiphe test (barley)/protective; type: in vivo; settings: single active compound, application rate 12.5 g/ha, protective, evaluation 6 days after inoculation
[7] = test system: Phytophthora infestans; type: in vivo; settings: tomato, protective, 3 days after inoculation
[8] = test system: Puccinia recondita; test: Puccinia test (wheat)/curative; settings: single active compound, application rate 62.5 g/ha, curative, evaluation 8 days after inoculation
Protocol: Puccinia Test (Wheat)/Curative
To test for curative activity, young plants are sprayed with a conidia suspension of Puccinia recondita. The plants remain in an incubation cabinet at 20° C. and 100% relative atmospheric humidity for 48 hours.
The plants are placed in a greenhouse at a temperature of about 20° C. and a relative atmospheric humidity of about 80% to promote the development of rust pustules.
Evaluation is carried out 8 days after the inoculation.

[9] = test system: Alternaria solani; test: Alternaria solani test (tomato)/protective; type: in vivo; settings: protective, 3 days after inoculation
[10] = test system: Sphaerotheca fuliginea; test: Sphaerotheca fuliginea test (gherkin)/protective; type: in vivo; settings: protective, 21 days after inoculation, application rate 8 ppm
[11] = test system: Botrytis cinerea; test: Botrytis cinerea test (bean)/protective; settings: single active compound, application rate 5 g/ha, protective, evaluation 2 days after inoculation
Protocol: After the spray coating has dried on, 2 small pieces of agar colonized by Botrytis cinerea are placed onto each leaf. The inoculated plants are placed in a darkened chamber at about 20° C. and 100% relative atmospheric humidity.
The size of the infected areas on the leaves is evaluated 2 days after the inoculation.

[12] = test system: Gibberella zeae; type: in vivo; settings: single active compound, application rate 62.5 g/ha; barley, curative, evaluation 6 days after inoculation
[13] = Podosphaera fuliginea, 168 h, application rate 0.5 g/ha, read-out: Efficacy in % found
[14] = Podosphaera fuliginea, 168 h, application rate 1 g/ha, read-out: Efficacy in % found
[15] = Podosphaera fuliginea, 168 h, read-out: Efficacy in % found
[16] = Podosphaera fuliginea, 168 h, application rate 20 g/ha, read-out: Efficacy in % found

Cn1cc(C(=O)Nc2ccc(F)cc2-c2ccc(Cl)c(Cl)c2)c(C(F)F)n1 [(1-1), N-(3′,4′-dichloro-5-fluoro-1,1′-biphenyl-2-yl)-3-(difluoromethyl)-1-methyl-1H-pyrazole-4-carboxamide]
Efficacy in % found ([1]; 0.1 ppm): 40%
Efficacy in % found ([1]; 0.3 ppm): 80%
pest or weed control at 0.5 g/ha [2, 13]: 0%
pest or weed control at 1 g/ha [2, 14]: 16%
pest or weed control at 2 g/ha [2, 15]: 36%
pest or weed control at 4 g/ha ([2]; Podosphaera fuliginea, 168 h, application rate 4 g/ha, read-out: Efficacy in % found): 30%
Efficacy in % found [3]: 43%
Efficacy in % found ([4]; 0.003 ppm): 25%
Efficacy in % found ([4]; 0.03 ppm): 51%
Efficacy in % found [5]: 15%
Efficacy in % found [6]: 0%
Efficacy in % found ([7]; application rate 0.5 g/ha): 0%
Efficacy in % found ([7]; application rate 1 g/ha): 0%
Efficacy in % found ([7]; application rate 5 g/ha): 0%
Efficacy in % found ([7]; application rate 10 g/ha): 0%
Efficacy in % found [8]: 22%
Efficacy in % found ([9]; application rate 0.5 g/ha): 42%
Efficacy in % found ([9]; application rate 1 g/ha): 61%
Efficacy in % found [10]: 60%
Efficacy in % found [11]: 54%
Efficacy in % found [12]: 40%

Cc1nc(C(F)F)c(C(=O)Nc2ccccc2-c2ccc(Br)cc2)s1 [(1-7), N-(4′-bromo-1,1′-biphenyl-2-yl)-4-(difluoromethyl)-2-methyl-1,3-thiazole-5-carboxamide]
pest or weed control at 0.5 g/ha [2, 13]: 0%
pest or weed control at 1 g/ha [2, 14]: 0%
pest or weed control at 2 g/ha [2, 15]: 0%
Efficacy in % found ([9]; application rate 0.5 g/ha): 28%
Efficacy in % found ([9]; application rate 1 g/ha): 63%

CO/C=C(\C(=O)OC)c1ccccc1Oc1cc(Oc2ccccc2C#N)ncn1 [(2-1) azoxystrobin]
Efficacy in % found ([2]; application rate 0.5 g/ha): 20%

CO/N=C(/C1=NOCCO1)c1ccccc1Oc1ncnc(Oc2ccccc2Cl)c1F [(2-2) fluoxastrobin, fluoxastrobin, reference compound]
pest or weed control at 1 g/ha [2, 14]: 0%
Efficacy in % found [3]: 0%

CNC(=O)/C(=N/OC)c1ccccc1Oc1ncnc(Oc2cccc(Cl)c2C)c1F [(2-3), (2E)-2-(2-{[6-(3-chloro-2-methylphenoxy)-5-fluoro-4-pyrimidinyl]oxy}phenyl)-2-(methoxyimino)-N-methylethanamide, reference compound]
Efficacy in % found ([9]; application rate 0.5 g/ha): 22%

CO/N=C(/C(=O)OC)c1ccccc1CO/N=C(\C)c1cccc(C(F)(F)F)c1 [(2-4) trifloxystrobin, trifloxystrobin, reference compound]
pest or weed control at 2 g/ha [2, 15]: 10%
Efficacy in % found [6]: 78%

CO/C=C(/C(=O)OC)c1ccccc1COc1cccc(C(F)(F)F)n1 [(2-11) picoxystrobin, picoxystrobin]
Efficacy in % found [8]: 78%

COC(=O)N(OC)c1ccccc1COc1ccn(-c2ccc(Cl)cc2)n1 [(2-12) pyraclostrobin, pyraclostrobin, reference compound]
pest or weed control at 2 g/ha [2, 15]: 0%
Efficacy in % found [12]: 80%

CCCC1COC(Cn2cncn2)(c2ccc(Cl)cc2Cl)O1 (centres unmarked) [(3-3) propiconazole]
Efficacy in % found ([9]; application rate 0.5 g/ha): 3%

Fc1ccc(C2(Cn3cncn3)OC2c2ccccc2Cl)cc1 (centres unmarked) [(3-12) epoxyconazole, epoxiconazole]
Efficacy in % found [12]: 0%

OC(Cc1ccccc1Cl)(Cn1ncnc1S)C1(Cl)CC1 (centres unmarked) [(3-15) prothioconazole, prothioconazole, reference compound]
pest or weed control at 1 g/ha [2, 14]: 43%
Efficacy in % found [6]: 67%

CC(C)(C)C(O)(CCc1ccc(Cl)cc1)Cn1cncn1 (centres unmarked) [(3-17) tebuconazole, tebuconazole, reference compound]
pest or weed control at 1 g/ha [2, 14]: 10%
Efficacy in % found [3]: 29%

CC(C)(C)C(O)C(Oc1ccc(-c2ccccc2)cc1)n1cncn1 (centres unmarked) [(3-21) bitertanol]
Efficacy in % found ([2]; application rate 1 g/ha): 0%

Cc1ccc(N(SC(F)(Cl)Cl)S(=O)(=O)N(C)C)cc1 [(4-2) tolylfluanid]
Efficacy in % found ([2]; application rate 20 g/ha): 0%
Efficacy in % found ([7]; application rate 10 g/ha): 0%

Cc1ccc(C(C)NC(=O)[C@@H](NC(=O)OC(C)C)C(C)C)cc1 (some centres unmarked) [(5-1) iprovalicarb]
Efficacy in % found ([7]; application rate 5 g/ha): 61%
Efficacy in % found ([7]; application rate 10 g/ha): 64%

CC(C)OC(=O)N[C@H](C(=O)N[C@H](C)c1nc2ccc(F)cc2s1)C(C)C [(5-3) benthiavalicarb]
Efficacy in % found ([7]; application rate 0.5 g/ha): 56%
Efficacy in % found ([9]; application rate 1 g/ha): 5%

O=C(Nc1ccccc1-c1ccc(Cl)cc1)c1cccnc1Cl [(6-2) boscalid]
Efficacy in % found [10]: 50%

CC1(C(=O)Nc2ccc(O)c(Cl)c2Cl)CCCCC1 [(6-6) fenhexamid]
Efficacy in % found ([2]; application rate 20 g/ha): 0%

N#Cc1ccccc1NC(=O)c1snc(Cl)c1Cl [(6-11), 3,4-dichloro-N-(2-cyanophenyl)isothiazole-5-carboxamide]
Efficacy in % found [8]: 0%

CC(C)CC(C)c1sccc1NC(=O)c1cn(C)nc1C(F)(F)F (centres unmarked) [(6-14) penthiopyrad]
Efficacy in % found ([2]; application rate 4 g/ha): 0%

CC(C)CC(C)c1sccc1NC(=O)c1cn(C)nc1C(F)(F)F (centres unmarked) [(6-14), penthiopyrad]
Efficacy in % found [8]: 44%

COCC(=O)N(c1c(C)cccc1C)[C@H](C)C(=O)OC [(8-4) metalaxyl-M]
Efficacy in % found ([9]; application rate 0.5 g/ha): 7%

COC(=O)[C@@H](C)N(C(=O)Cc1ccccc1)c1c(C)cccc1C [(8-5) benalaxyl-M]
Efficacy in % found ([9]; application rate 0.5 g/ha): 14%

Cc1cc(C)nc(Nc2ccccc2)n1 [(9-3) pyrimethanil, pyrimethanil, reference compound]
pest or weed control at 20 g/ha [2, 16]: 0%
Efficacy in % found [11]: 4%

COC(=O)Nc1nc2ccccc2[nH]1 [(10-3) carbendazim]
Efficacy in % found ([4]; 0.03 ppm): 15%

CCCOC(=O)NCCCN(C)C [(11-2) propamocarb]
Efficacy in % found ([1]; 0.1 ppm): 25%

CC(C)NC(=O)N1CC(=O)N(c2cc(Cl)cc(Cl)c2)C1=O [(12-4) iprodione, iprodione, reference compound]
pest or weed control at 20 g/ha [2, 16]: 0%
Efficacy in % found [11]: 13%

[O-][n+]1nc(-n2ccnc2)nc2ccc(Cl)cc21 [(14-3) triazoxide, triazoxide, reference compound]
Efficacy in % found [5]: 29%

CCO[PH](=O)[O-].CCO[PH](=O)[O-].CCO[PH](=O)[O-].[Al+3] [(17-1) fosetyl-Al]
Efficacy in % found ([1]; 0.3 ppm): 24%

N#Cc1c(Cl)c(Cl)c(Cl)c(C#N)c1Cl [(19-2) chlorothalonil]
Efficacy in % found ([2]; application rate 20 g/ha): 0%

CSC1=N[C@@](C)(c2ccccc2)C(=O)N1Nc1ccccc1 [(19-3) fenamidone]
Efficacy in % found ([4]; 0.003 ppm): 2%

CCCN(CC)CC1COC2(CCC(C(C)(C)C)CC2)O1 (centres unmarked) [(19-10) spiroxamine, spiroxamine, reference compound]
pest or weed control at 20 g/ha [2, 16]: 0%
Efficacy in % found [8]: 0%

CSC1=N[C@@](C)(c2ccccc2)C(=O)N1Nc1ccccc1 [(19-13) fenamidone]
Efficacy in % found ([7]; application rate 0.5 g/ha): 41%

O=C(Nc1ccccc1)N(Cc1ccc(Cl)cc1)C1CCCC1 [(20-1) pencycuron]
Efficacy in % found ([4]; 0.003 ppm): 11%

C[C@H](Nc1c(-c2c(F)cc(F)cc2F)c(Cl)nc2ncnn12)C(F)(F)F [(22-1), 5-chloro-N-[(1S)-2,2,2-trifluoro-1-methylethyl]-6-(2,4,6-trifluorophenyl)[1,2,4]triazolo-[1,5-a]pyrimidine-7-amine, reference compound]
pest or weed control at 2 g/ha [2, 15]: 11%

CC(C)[C@@H](C)Nc1c(-c2c(F)cc(F)cc2F)c(Cl)nc2ncnn12 [(22-2), 5-chloro-N-[(1R)-1,2-dimethylpropyl]-6-(2,4,6-trifluorophenyl)[1,2,4]triazolo[1,5-a]-pyrimidine-7-amine, reference compound]
pest or weed control at 1 g/ha [2, 14]: 22%

Reference: patent US9006143B2, “Synergistic fungicidal active substance combinations” (Bayer Intellectual Property GmbH, priority 2003, dated 2015)
